Reference: patent publication US20250154112A1, “A PREPARATION OF QUINAZOLINEDIONES AND USE THEREOF” (COUNCIL OF SCIENTIFIC AND INDUSTRIAL RESEARCH AN INDIAN …, priority 2021, published 2025)
Converted amounts (≈) assume the structure as drawn.

Legend:
[1] = molecular target: T1, COP1 (Mus musculus, UniProt Q9R1A8); experiment: In vivo study, Western blot of COP1 in mice liver and adipose tissue; parameters: species or system C57BL/6 mice; conditions: 80 mg/kg orally, 9 days
T1 construct: from tissue; host or cells: liver and adipose tissue of C57BL/6 mice
T1 sequence (Q9R1A8 whole entry): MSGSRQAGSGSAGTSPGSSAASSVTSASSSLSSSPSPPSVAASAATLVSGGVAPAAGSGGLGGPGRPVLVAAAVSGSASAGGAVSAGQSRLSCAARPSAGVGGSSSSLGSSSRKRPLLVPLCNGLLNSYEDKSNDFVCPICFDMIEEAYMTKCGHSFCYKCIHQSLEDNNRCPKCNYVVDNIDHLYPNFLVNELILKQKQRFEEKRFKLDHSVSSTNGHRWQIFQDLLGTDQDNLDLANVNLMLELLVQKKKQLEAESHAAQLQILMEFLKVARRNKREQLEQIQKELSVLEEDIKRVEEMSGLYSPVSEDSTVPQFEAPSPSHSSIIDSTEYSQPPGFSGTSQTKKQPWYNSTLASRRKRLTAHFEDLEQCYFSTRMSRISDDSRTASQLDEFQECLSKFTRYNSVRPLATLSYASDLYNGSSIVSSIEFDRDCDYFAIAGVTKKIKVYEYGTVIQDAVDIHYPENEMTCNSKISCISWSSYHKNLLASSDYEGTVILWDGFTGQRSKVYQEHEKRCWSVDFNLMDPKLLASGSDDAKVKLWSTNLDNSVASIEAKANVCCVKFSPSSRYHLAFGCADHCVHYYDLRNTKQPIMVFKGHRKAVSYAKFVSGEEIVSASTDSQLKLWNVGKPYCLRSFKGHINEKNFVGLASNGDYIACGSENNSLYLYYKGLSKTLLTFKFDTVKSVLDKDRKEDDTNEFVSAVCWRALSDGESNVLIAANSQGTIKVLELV
Method: 6-8 weeks old healthy male C57BL/6 mice (average weight: 28 grams) were taken for the study. These were then divided into two groups comprising of three mice per group (Control, compound 62). Mice were fed with 80 mg/kg of compound 62 orally. The compound was dissolved in 10% EtOH, 40% PEG, 20% PG, 30% NaCl solution (0.9%). The control group was fed only with the solvent in which the compound was dissolved. Post 9 days of one-time feeding mice were sacrificed and a portion of the excised liver tissue and adipose was homogenized in lysis buffer containing protease inhibitor cocktail. The homogenate was centrifuged at 20,000 g for 30 minutes following which the supernatant containing the protein lysate was collected. The lysate was then diluted accordingly, and protein estimation was carried out by Bradford Assay. This was followed by Western Blotting wherein the levels of ATGL and COP1 were checked. Actin was used as the loading control.

[2] = Kinetic solubility; type: physicochemical; conditions: pH 7.4 phosphate buffer (PBS), aqueous buffer, kinetic from dmso stock, room temperature, 1.0% DMSO
Method: PBS sachet was dissolved in 0.9 L of Milli Q water and pH was adjusted to 7.4. Final volume was made up to 1 L with the water and stored at ambient temperature 21-25° C. […] 4 μL from the 50 mM stock solution were added to deep well plate containing 396 μL of pH 7.4 phosphate buffer, mixed and incubated for 24 hours at room temperature with constant mixing at 300 rpm. The plate was sealed well during the incubation process. After incubation, the samples were centrifuged for 20 min at 4000 rpm. The supernatant was analysed by HPLC-UV. The DMSO content in the sample was 1.0%. The final concentration of the compound in deep well plate was 500 μM.

[3] = test system: ubiquitination of ATGL by COP1; experiment: Immunoprecipitation assay of ATGL ubiquitination status in HepG2 cells; type: cell-based; conditions: HepG2 cells overexpressing myc-ATGL, HA-Ubiquitin, 5 μM, MG-132, compared with control
Method: To this end, an immunoprecipitation assay was performed wherein HepG2 cells overexpressing myc-ATGL were transfected with HA-Ubiquitin and treated with 5 μM of the compounds 5, 62, and 94.MG-132, a proteasomal inhibitor, was added4 hours before harvesting the cells. Immune complexes were pulled down with anti-myc antibody and immunoblot was done using anti-HA antibody. The resultant smears on the blot reflect the ubiquitination status of ATGL.

[4] = test system: ATGL; experiment: Western blot of ATGL level in HepG2 cells after compound treatment; type: cell-based; conditions: 24 hours; for ATGL level (Western Blot): 50 nM to 5 μM dose dependent, with respect to control; for induction of ATGL (Western Blot): 5 μM
Method: (§1) HepG2 cells were treated with the compounds 5, 8, 11, 59, 62, 91, 94 (50 nM, 100 nM, 200 nM, 500 nM, 1 μM and 5 μM for dose dependent assays) for 24 hours. After removing media from the cells, the wells were washed with 1×PBS twice to remove any remnant media. Cells were then lysed in lysis buffer containing 50 mM Tris-HCl (pH 7.4), 100 mM NaCl, 1 mM EDTA, 1 mM EGTA, 1% Triton X-100 and protease inhibitor cocktail (Millipore, Billierica, MA, USA). Following centrifugation at 20,000 g for 20 minutes, the protein solution was extracted from the cells. Protein was estimated using Bradford assay. Bradford's reagent (BioRad) was diluted in 1:4 ratio in double distilled water. 2 μl of protein sample was added to 100 μl of the reagent and absorbance was measured at 595 nm. 30 μg of protein was diluted in lysis buffer. 1X loading buffer diluted from 5X stock containing 250 mM Tris-HCl (pH 6.8), 10% SDS, 50% glycerol, 0.1% bromophenol Blue and 10% β-mercaptoethanol was added. The protein samples were then heated at 95° C. for 10 minutes, cooled and centrifuged at 12,000 g for 2 minutes prior to loading.
For western blotting, the proteins were resolved in 10% SDS PAGE (discontinuous buffer system). 1X running buffer containing SDS, Tris Base and Glycine was used to run the gel at 80V for approximately 2 hours. Transfer was done using PVDF membrane (Millipore) having pore size of 0.45 μm. 1X transfer buffer containing Tris-Base, Glycine and 20% methanol was used for wet transfer. Transfer was done at 90V for 3 hours. Following transfer, the PVDF membrane containing the proteins were washed in 1×PBST comprising of 1×PBS and 1% Tween 20 (Sigma Aldrich). The membrane was then incubated for 1 hour at room temperature in 5% skim milk powder to block the non-specific sites. Following multiple washes with 1×PBST to wash away any remaining blocking buffer, the required primary antibody (COP1 [BethylLaboraties], ATGL [Cell Signalling Technology] or Actin[Cell Signalling Technology]) prepared with 1×PBST, 1% Bovine Serum Albumin and 0.04% Sodium Azide was added to the membrane and incubated overnight at 4° C. The next day, the membrane was again washed multiple times with 1×PBST to remove any unbound primary antibody. The membrane was then incubated with goat anti-rabbit secondary antibody (Genei) for 1 hour at room temperature and washed again for multiple times with 1×PBST. The membrane was then developed using Clarity™ ECL Western Blotting Substrate (BioRad) and viewed in ChemiDoc (BioRad).
as §1, with “62, 65,” for “62,”, “at” for “(50 nM, 100 nM, 200 nM, 500 nM, 1 μM and”, “μM” for “μM for dose dependent assays)”, “cocktail 1” for “cocktail”

| solubility kinetic at 24 hours [2] | Compound | COP1 levels in liver and adipose lysates [1] | ubiquitination status of ATGL (poly-Ubiquitin smear) [3] | ATGL level (Western Blot) [4] | induction of ATGL (Western Blot) [4] |
| --- | --- | --- | --- | --- | --- |
| 116 µg/mL (≈ 228 µM) | COCCn1c(=O)c2cc(NC(=O)Nc3cccc(C(C)=O)c3)ccc2n(CCN2CCCCC2)c1=O [Compound 62, 1-(3-acetylphenyl)-3-(3-(2-methoxyethyl)-2,4-dioxo-1-(2-(piperidin-1-yl)ethyl)-1,2,3,4-tetrahydroquinazolin-6-yl)urea] | effective in increasing ATGL and COP1 levels | stark reduction in the ubiquitination smear | increased ATGL level | ability to induce ATGL |
| 0.8 µg/mL (≈ 2.02 µM) | COCCn1c(=O)[nH]c2ccc(NC(=O)Nc3cccc(C(C)=O)c3)cc2c1=O [Compound 5, 1-(3-acetylphenyl)-3-(3-(2-methoxyethyl)-2,4-dioxo-1,2,3,4-tetrahydroquinazolin-6-yl)urea] | – | stark reduction in the ubiquitination smear | increased ATGL level | ability to induce ATGL |
| 89.9 µg/mL (≈ 172 µM) | COCCn1c(=O)c2cc(NC(=O)Nc3cccc(C(C)=O)c3)ccc2n(CCCN2CCOCC2)c1=O [Compound 94, 1-(3-acetylphenyl)-3-(3-(2-methoxyethyl)-1-(3-morpholinopropyl)-2,4-dioxo-1,2,3,4-tetrahydroquinazolin-6-yl)urea] | – | no such effect | increased ATGL level | ability to induce ATGL |
